Reference: ChEMBL document CHEMBL1201862, “PubChem BioAssay data set” (2004)
The source made the active and inactive calls.

Key:
[1] = biological target: T1, Sentrin-specific protease 8 (Homo sapiens, UniProt Q96LD8); assay type: functional
T1 sequence (Q96LD8 whole entry): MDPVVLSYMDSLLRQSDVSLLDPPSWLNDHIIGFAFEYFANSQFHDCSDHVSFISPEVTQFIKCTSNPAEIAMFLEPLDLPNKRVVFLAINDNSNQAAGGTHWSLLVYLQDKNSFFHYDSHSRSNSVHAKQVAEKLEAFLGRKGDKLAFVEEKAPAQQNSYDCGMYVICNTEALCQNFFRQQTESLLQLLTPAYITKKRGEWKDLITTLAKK

[2] = biological target: T1, Sentrin-specific protease 8; assay type: functional; remark: listed apart in the source
[3] = tested on: Streptococcus sp. 'group A'; assay: Streptococcus pyogenes SK(-)GAS viability under kanamycin – luminescence, BacTiterGlo, confirmation, counter-screen for streptokinase expression inhibitor project, dose response (AID 1900); assay type: functional, organism-based
Cysteine protease ATG4B = biological target: T2, Cysteine protease ATG4B (Homo sapiens, UniProt Q9Y4P1); assay type: functional;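 note: Fluorescence-based dose-response confirmation assay measuring inhibition of ATG4B activity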
T2 sequence (Q9Y4P1 whole entry): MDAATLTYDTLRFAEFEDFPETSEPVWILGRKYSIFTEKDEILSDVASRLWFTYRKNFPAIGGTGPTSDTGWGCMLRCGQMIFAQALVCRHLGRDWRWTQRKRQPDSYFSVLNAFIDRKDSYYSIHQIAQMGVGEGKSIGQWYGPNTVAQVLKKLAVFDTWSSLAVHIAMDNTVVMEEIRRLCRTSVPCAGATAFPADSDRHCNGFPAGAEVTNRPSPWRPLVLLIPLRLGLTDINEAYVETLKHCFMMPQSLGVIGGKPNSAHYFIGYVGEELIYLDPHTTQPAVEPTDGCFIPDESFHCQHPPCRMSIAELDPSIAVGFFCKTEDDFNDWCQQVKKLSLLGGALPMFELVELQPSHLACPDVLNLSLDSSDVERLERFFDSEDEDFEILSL

[4] = CCR5-tropic HIV-1 fusion blockers – cell-based, CCR5-tropic Env, dose response (AID 2279); assay type: functional
Streptokinase A = biological target: T3, Streptokinase A (Streptococcus pyogenes serotype M1, UniProt P10520); assay: viability-normalized secreted streptokinase activity reduction – plasminogen activation absorbance, OD405, dose response (AID 1914); assay type: functional, Streptococcus pyogenes M1 GAS;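 note: secreted streptokinase activity via plasminogen activation per viability signal from cell pellet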
T3 sequence (P10520 whole entry): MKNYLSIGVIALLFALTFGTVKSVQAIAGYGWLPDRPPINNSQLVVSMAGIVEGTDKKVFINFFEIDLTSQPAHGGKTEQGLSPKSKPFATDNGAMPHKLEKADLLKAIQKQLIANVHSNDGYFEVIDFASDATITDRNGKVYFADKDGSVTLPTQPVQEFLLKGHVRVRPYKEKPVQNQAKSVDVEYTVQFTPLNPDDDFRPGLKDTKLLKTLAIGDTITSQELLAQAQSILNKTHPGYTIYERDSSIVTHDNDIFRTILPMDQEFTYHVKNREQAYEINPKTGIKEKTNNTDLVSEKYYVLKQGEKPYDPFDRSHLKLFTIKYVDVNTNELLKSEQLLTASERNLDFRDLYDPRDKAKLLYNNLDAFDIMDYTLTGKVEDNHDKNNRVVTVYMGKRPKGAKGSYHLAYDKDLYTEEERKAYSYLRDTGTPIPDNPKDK

HeLa = assay: ATP-based viability loss in HeLa cells – cell-based, CellTiter-Glo luminescence, cherry-pick samples, cytotoxicity control for MITF activator project, dose response (AID 540259); assay type: functional; settings: Homo sapiens
Streptococcus = assay: GAS UMAA2166 growth inhibition – luminescence, BacTiterGlo, counter-screen for streptokinase expression inhibitor project, dose response (AID 1915); assay type: functional, organism-based;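 note: potency for reduction of bacterial viability or growth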
Phospholipase A2 = Phospholipase A2 (Homo sapiens, UniProt P04054); assay type: functional;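 note: confirmatory dose-response counterscreen on phospholipase A2, testing hits that came from an ultra-high-throughput screen for ATG4B inhibitors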
Beta-lactamase [5] = biological target: T4, Beta-lactamase (Pseudomonas aeruginosa, UniProt Q79MP6); assay: inhibition of IMP-1 beta-lactamase activity – biochemical, epi-absorbance, selectivity assay for VIM-2 inhibitor project, dose response (AID 1920)
Beta-lactamase [6] = biological target: T4, Beta-lactamase; assay: […] counterscreen for selective VIM-2 inhibitors: dose response biochemical high throughput screening assay to identify inhibitors of IMP-1 metallo-beta-lactamase.
Beta-lactamase [7] = biological target: Beta-lactamase (Salmonella choleraesuis (strain SC-B67), UniProt Q5J463); assay: Epi-absorbance-based counterscreen for selective VIM-2 inhibitors: dose response biochemical high throughput screening assay to identify inhibitors of TEM-1 serine-beta-lactamase.
[8] = TNFa-induced NF-kB reporter signal decrease – HEK293 LMP1 reporter cells, dry powder, set 2, selectivity assay for EBV LMP1 NF-kB inhibitor project, dose response (AID 624369); assay type: functional
[9] = Luminescence Cell-Based Dose Response HTS to Identify Inhibitors of 5'UTR Stem-Loop Driven Prion Protein mRNA Translation in H4 Neuroglioblastoma Cells. [Related pubchem assays: 1827 (Project Summary), 1813 (Primary HTS)]; assay type: functional
[10] = luciferase reporter signal suppression in cells – H4 neuroglioma cells, luminescence, dose response (AID 1990); assay type: functional, cell-based
[11] = fluconazole-exposed Candida albicans growth modulators – fluorescence, retest, confirmation (AID 2467); assay type: functional, cell-based
[12] = alpha-synuclein stem-loop luciferase translation blockers – H4 neuroglioma cells, luminescence, confirmation (AID 1988); assay type: functional, cell-based
[13] = loss of viability in HepG2 cells – cell-based, CellTiter-Glo, cherry-picked, cytotoxicity control for Shn3 inhibitor project, dose response (AID 624134); assay type: functional
[14] = NIH-3T3 fibroblast cytotoxicity, dose response, cytotoxicity control, cell-based, fluorescence, Alamar Blue, secondary assay (AID 2327); assay type: functional;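 note: NIH-3T3 mouse fibroblasts cultured with fluconazole at 8 µg/mL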
Nonstructural protein 1 = Nonstructural protein 1 (Influenza A virus, UniProt Q194T2); assay type: functional, Influenza A virus (A/California/07/2009(H1N1))
[15] = biological target: FAD-linked sulfhydryl oxidase ALR (Homo sapiens, UniProt P55789); assay: ALR-catalysed DTT oxidation blockers – biochemical, H2O2 detection, luminescence, cherry-pick, dose response (AID 493248)
[16] = non-specific 3'UTR reporter inhibition in Clone20-Shn3RL – cell-based, Renilla luciferase, cherry-picked, counter-screen for Shn3 inhibitor project, dose response (AID 624133); assay type: functional
[17] = reduction of Shn3 3'UTR-driven luciferase in osteoblasts – cell-based, Clone20 osteoblasts, firefly luciferase, cherry-picked, dose response (AID 624132); assay type: functional;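 note: firefly luciferase luminescence from reporter carrying the Shn3 3'UTR in osteoblasts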
H4 = assay: Luminescence Cell-Based Dose Response HTS to Identify Activators of 5'UTR Stem-Loop Driven Prion Protein mRNA Translation in H4 Neuroglioblastoma Cells. [Related pubchem assays: 1829 (Project Summary), 1814 (Primary HTS)]; assay type: functional; settings: Homo sapiens
[18] = Luminescence Cell-Based Dose Response HTS to Identify Activators of Luciferase Translation or Activity in H4 […] Cells. [Related pubchem assays: 1829 (Project Summary), 1814 (Primary HTS)]; assay type: functional
[19] = Luminescence Cell-Based Dose Confirmation HTS to Identify Activators of 5'UTR Stem-Loop Driven Alpha-Synuclein mRNA Translation in H4 Neuroglioblastoma Cells. [Related pubchem assays: 1829 (Project Summary), 1814 (Primary HTS)]; assay type: functional
[20] = NIH3T3 cell viability loss – ATP luminescence, mouse fibroblasts, counter-screen, dose response (AID 2010); assay type: functional, cell-based;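 note: cells exposed to compound for about 90 hours before reading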
[21] = Luminescence Cell-Based Dose Retest to Confirm Inhibitors of Cancer Stem Cells. [Related pubchem assays (depositor defined):AID2717, AID2721]; assay type: functional; settings: Homo sapiens
[22] = Trypanosoma cruzi growth suppression in host cells – NIH3T3 host cells, beta-gal luminescence, confirmation (AID 2044); assay type: functional, cell-based;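 note: intracellular parasites grown in NIH/3T3 mouse fibroblasts as host cells; luminescent beta-galactosidase reporter signal from transgenic T. cruzi replicating inside host cells; inhibitors lower the luminescence signal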
Vero = assay: cells; assay type: functional; settings: Chlorocebus sabaeus
INS1 = assay: INS-1E survival protection against cytokine death – cell-based, luminescence, retest, dose response (AID 449756); assay type: functional; settings: Rattus norvegicus;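 note: cell death triggered by IL-1 beta plus TNF-alpha plus IFN-gamma mixture; protective hits raise ATP signal compared with cytokine alone wells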

Chain of Phospholipase A2 (P04054 whole entry): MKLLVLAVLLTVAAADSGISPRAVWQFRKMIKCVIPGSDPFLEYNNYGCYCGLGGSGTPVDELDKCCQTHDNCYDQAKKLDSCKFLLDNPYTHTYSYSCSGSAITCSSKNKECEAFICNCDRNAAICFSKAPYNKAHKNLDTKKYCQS
T4 sequence (Q79MP6 whole entry): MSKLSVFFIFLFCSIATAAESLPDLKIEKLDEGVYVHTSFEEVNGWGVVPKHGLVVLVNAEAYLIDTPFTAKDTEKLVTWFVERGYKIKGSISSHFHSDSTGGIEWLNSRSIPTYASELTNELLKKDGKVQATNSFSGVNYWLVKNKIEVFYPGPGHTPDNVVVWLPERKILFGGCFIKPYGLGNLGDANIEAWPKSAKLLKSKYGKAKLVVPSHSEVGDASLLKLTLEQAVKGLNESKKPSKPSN
Chain of FAD-linked sulfhydryl oxidase ALR (P55789 whole entry): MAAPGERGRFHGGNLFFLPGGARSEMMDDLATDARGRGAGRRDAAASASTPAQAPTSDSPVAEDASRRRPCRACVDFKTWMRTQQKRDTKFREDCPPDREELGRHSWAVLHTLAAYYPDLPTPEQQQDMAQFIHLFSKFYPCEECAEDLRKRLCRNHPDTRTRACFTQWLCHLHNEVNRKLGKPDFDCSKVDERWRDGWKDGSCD
Chain of Beta-lactamase (Salmonella choleraesuis (strain SC-B67), UniProt Q5J463) (Q5J463 whole entry): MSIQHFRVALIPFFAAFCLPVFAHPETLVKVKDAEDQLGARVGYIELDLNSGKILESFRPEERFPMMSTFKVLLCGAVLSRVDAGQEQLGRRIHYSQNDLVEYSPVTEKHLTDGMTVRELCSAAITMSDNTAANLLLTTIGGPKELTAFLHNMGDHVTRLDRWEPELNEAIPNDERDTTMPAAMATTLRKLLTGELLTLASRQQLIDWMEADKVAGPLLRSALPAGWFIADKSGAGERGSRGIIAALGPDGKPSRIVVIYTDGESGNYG
Chain of Nonstructural protein 1 (Q194T2 whole entry): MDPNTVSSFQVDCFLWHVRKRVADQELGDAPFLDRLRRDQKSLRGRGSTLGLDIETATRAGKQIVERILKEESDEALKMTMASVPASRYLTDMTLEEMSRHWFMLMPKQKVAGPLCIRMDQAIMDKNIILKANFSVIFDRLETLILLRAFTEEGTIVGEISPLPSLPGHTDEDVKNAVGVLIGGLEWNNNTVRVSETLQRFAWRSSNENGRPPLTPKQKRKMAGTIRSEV

Structure (SMILES): O=C(CS(=O)(=O)Cc1ccccc1)N1CCc2ccccc2C1
- IC50 [1]: 6.67 µM (active)
- IC50 [2]: 11.4 µM (active)

Structure (SMILES): O=C(O)c1cc(-c2ccc(-c3c(-c4ccc5c(c4)OCO5)noc3-c3ccsc3)cc2)nc2ccccc12
- EC50 [3]: 1.85 µM (active)
- IC50 (Cysteine protease ATG4B): 6.81 µM (active)
- IC50 [4]: 37.7 µM (active)
- EC50 (Streptokinase A): > 150 µM (not active)
- AC50 (HeLa): 52.5 µM (active)
- EC50 (Streptococcus): 3.63 µM (active)
- IC50 (Phospholipase A2): 2.26 µM (active)

Structure (SMILES): Cc1ccc(-c2c(C(=O)O)c(C(=O)O)c3n2CSC3)cc1
- IC50 (Beta-lactamase [5]): > 59.6 µM (inactive)
- IC50 (Beta-lactamase [6]): 15.7 µM (inactive)
- IC50 (Beta-lactamase [7]): > 59.6 µM (inactive)

Structure (SMILES): C[C@@H]1CN([C@H](C)CO)S(=O)(=O)c2ccc(/C=C/c3ccccc3)cc2O[C@H]1CN(C)C(=O)NC1CCCCC1
- AbsAC35 [8]: 64.61 µM

Structure (SMILES): Cc1ccc(S(=O)(=O)Nc2ccc(O)c3ncccc23)cc1
- EC50 [9]: > 30 µM (not active)
- EC50 [10]: 15.1 µM (active)
- EC50 [11]: 2.12 µM (inconclusive)
- EC50 [12]: 10.6 µM (active)
- AC50 [13]: 41.4 µM (active)
- EC50 [14]: 28.4 µM (active)
- IC50 (Nonstructural protein 1): 16 µM (active)
- AC50 [15]: 5.2 µM (active)
- AC50 [16]: 0.715 µM (active)
- AC50 [17]: 1.55 µM (active)

Structure (SMILES): O=C(/C=C/NNC(=O)c1ccc(Cl)cc1)c1ccccc1
- EC50 (H4): 49.6 µM (active)
- IC50 [1]: 37.4 µM (active)
- EC50 [18]: > 120 µM (not active)
- EC50 [19]: > 120 µM (not active)
- IC50 [2]: > 100 µM (inactive)

Structure (SMILES): CCc1ccc2c(c1)C(c1ccc([N+](=O)[O-])cc1)=NNC(c1ccccc1)=N2
- IC50 (Cysteine protease ATG4B): 0.399 µM (active)
- IC50 (Phospholipase A2): 0.357 µM (active)

Structure (SMILES): O=C(NCc1nc(-c2ccc(C(F)(F)F)cc2)no1)Nc1cc(Cl)cc(Cl)c1
- EC50 [20]: 4.69 µM (active)
- EC50 [3]: 2.88 µM (active)
- AC50 [21]: 1.53 µM (active)
- EC50 [22]: 2.43 µM (active)
- EC50 (Streptokinase A): > 150 µM (not active)
- EC50 (Streptococcus): 8.49 µM (active)
- CC50 (Vero): 8.95 µM (active)
- AC50 (INS1): 7.49 µM (active)
